Measured values as given in US9669028B2, “Substituted 5-(pyrazin-2-yl)-1H-pyrazolo [3, 4-B] pyridine and pyrazolo [3, 4-B] pyridine derivatives as protein kinase inhibitors” (Arrien Pharmaceuticals LLC, priority 2011, dated 2017).
Values after ≈ are worked out from the molar mass of the structure shown.

Columns and labels:
LRRK2 = LRRK2 (Homo sapiens (Human), UniProt Q5S007); experiment: LRRK2 Kinase Assay; assay type: biochemical; conditions: 10 μM ATP
Method in brief: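 Radiometric filter-binding assay: compound pre-incubated ~20 min with kinase and substrate peptide in 20 mM HEPES pH 7.5, 10 mM MgCl2, 1% DMSO, then 10 μM ATP with 33P-ATP added.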

LRRK2 G2019S = LRRK2 G2019S (Homo sapiens (Human), UniProt Q5S007, G2019S); experiment: LRRK2 G2019S Kinase Assay; assay type: biochemical; conditions: 10 μM ATP
Sequence of LRRK2 G2019S (Q5S007 970-2527 G2019S): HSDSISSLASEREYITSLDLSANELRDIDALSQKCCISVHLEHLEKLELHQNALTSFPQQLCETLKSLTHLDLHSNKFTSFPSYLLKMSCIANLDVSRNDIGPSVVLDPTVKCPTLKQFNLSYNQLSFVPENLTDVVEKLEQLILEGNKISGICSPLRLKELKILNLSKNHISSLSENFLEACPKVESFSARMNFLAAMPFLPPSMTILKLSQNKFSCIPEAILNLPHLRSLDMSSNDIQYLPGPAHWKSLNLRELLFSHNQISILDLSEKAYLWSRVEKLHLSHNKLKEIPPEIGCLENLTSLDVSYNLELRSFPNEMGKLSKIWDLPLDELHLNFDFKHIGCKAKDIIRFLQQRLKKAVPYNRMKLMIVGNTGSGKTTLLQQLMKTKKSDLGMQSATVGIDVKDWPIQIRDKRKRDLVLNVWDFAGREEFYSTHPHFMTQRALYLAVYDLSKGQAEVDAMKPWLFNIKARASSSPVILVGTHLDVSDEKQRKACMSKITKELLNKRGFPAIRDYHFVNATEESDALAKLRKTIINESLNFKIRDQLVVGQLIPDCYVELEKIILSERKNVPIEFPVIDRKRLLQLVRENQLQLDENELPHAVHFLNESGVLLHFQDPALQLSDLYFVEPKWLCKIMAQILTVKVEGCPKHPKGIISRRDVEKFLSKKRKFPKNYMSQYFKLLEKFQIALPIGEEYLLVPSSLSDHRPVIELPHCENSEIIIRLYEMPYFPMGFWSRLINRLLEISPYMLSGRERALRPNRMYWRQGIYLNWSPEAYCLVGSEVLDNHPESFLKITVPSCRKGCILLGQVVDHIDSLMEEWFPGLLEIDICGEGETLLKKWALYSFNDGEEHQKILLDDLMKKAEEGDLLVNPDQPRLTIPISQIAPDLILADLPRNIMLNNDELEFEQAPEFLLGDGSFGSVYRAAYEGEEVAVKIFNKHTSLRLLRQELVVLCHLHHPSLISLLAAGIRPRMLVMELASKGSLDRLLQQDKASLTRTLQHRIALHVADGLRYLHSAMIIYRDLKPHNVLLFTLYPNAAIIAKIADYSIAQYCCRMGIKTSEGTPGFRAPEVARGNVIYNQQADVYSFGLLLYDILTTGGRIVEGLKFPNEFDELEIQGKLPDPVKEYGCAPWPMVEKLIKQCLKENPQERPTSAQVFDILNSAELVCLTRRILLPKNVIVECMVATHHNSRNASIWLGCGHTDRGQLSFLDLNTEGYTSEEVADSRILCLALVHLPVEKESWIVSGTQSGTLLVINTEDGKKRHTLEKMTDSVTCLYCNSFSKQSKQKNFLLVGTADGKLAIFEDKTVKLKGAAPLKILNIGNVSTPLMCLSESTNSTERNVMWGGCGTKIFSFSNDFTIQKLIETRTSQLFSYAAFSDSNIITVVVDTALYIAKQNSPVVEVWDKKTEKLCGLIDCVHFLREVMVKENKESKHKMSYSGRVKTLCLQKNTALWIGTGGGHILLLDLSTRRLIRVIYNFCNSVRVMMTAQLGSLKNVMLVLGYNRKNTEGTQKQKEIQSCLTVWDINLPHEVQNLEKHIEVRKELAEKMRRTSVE
Method in brief: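 Radiometric filter-binding assay: enzyme, substrate peptide and compound were mixed on ice, ATP added, then incubated 20 min at 30° C. Reaction was stopped with phosphoric acid and the peptide captured on filters. Incorporated radioactivity was read by scintillation counting; staurosporine served as reference.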

DYRK1A = DYRK1A (Homo sapiens (Human), UniProt Q13627); experiment: In vitro DYRK1A inhibition assay; assay type: biochemical
[1] = system: 299 protein kinases+17 additional preview kinases; experiment: Protein Kinase Selectivity Profiler; assay type: biochemical, human; conditions: ABL1 T315I, ALK2, ARK5, Aurora A/B/C, BRAF, C-KIT, CLK1-4, CSF1R, DYRK1A-4, FLT3, GSK3β, JAK1-3, KDR, LCK ... TRKA-C; single dose; 10 μM ATP
[2] = system: MPTP-injected C57 black mice; experiment: MPTP mouse model of Parkinson's disease, oral pre-treatment; assay type: in vivo
Rat pharmacokinetics = conditions: male, Sprague Dawley
Excerpt: To investigate the pharmacokinetic profiles of test compound following intravenous bolus administration and oral gavage in male Sprague Dawley rats.

[3] = system: Rat hepatoma (H4IIE) cell line; experiment: In vitro toxicology, general cytotoxicity; assay type: cell-based; conditions: rat, 24 h
Experimental: Cells were seeded into 96-well plates and cultured in medium containing 20% bovine serum. […] General cytotoxicity was evaluated by monitoring membrane integrity (MBR, cell supernatant), cell mass (PI) and mitochondrial function (cellular ATP levels). Rotenone was included as a positive control because it produces measurable effects in all three assays. DMSO at 0.5% in medium was included as a negative control. Three wells per exposure concentration were used in each assay. Results are summarized in Table 8 and are expressed as percent of control, with control values set at 100%. […] Test compounds 13 and 13 HCl were rank-ordered from most to least toxic based on individual membrane integrity and ATP responses as well as resultant TC50 values.
Test compounds 13 and 13 HCl were rank-ordered from highest to lowest probability of producing toxicity based first on membrane toxicity, then on ATP, and finally on cell mass (PI). It is important to note that within a given grouping compounds may be classified as to their primary effect being either cytotoxic, cytostatic, or reducing mitochondrial function. In general, compound responses above 80% of vehicle control are considered to be low-to-no effect, moderates generally rank 80% to 50% of vehicle control, and those compounds that cross the 50% mark are considered to have higher probability of toxicity.

recombinant human MAO-A = recombinant human MAO-A (Homo sapiens (Human), UniProt P21397); experiment: Inhibition of monoamine oxidase MAO-A; assay type: biochemical; conditions: kynuramine 50 μM, 25 min at 37° C.
Sequence of recombinant human MAO-A (P21397 whole entry): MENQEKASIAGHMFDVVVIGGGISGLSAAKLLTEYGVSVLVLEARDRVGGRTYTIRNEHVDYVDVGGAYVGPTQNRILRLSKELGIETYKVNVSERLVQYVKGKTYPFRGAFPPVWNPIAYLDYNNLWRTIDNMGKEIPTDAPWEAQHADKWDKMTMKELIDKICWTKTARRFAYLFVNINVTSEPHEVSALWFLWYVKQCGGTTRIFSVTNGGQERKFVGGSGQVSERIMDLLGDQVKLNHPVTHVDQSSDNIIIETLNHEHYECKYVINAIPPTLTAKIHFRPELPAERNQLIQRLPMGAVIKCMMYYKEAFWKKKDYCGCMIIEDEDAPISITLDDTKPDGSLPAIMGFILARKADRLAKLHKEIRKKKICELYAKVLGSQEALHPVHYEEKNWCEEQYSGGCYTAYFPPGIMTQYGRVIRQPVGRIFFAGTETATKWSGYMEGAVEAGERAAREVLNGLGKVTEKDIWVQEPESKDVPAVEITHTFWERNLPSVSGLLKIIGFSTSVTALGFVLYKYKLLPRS
Experimental: (§1) Test compounds (0.01-100 μM) final DMSO concentration 0.1%, were incubated with recombinant human MAO-A (2 μg/mL) or MAO-B (2 μg/mL) in the presence of the probe substrate kynuramine (50 μM) for 25 min at 37° C. […] The reactions were terminated by addition of methanol containing internal standard for analytical quantification. The quenched samples were incubated at 4° C. for 10 min and centrifuged at 4° C. for 10 min. The supernatant was removed and analyzed by LC-MS/MS for the probe metabolite 4-hydroxyquinoline.

recombinant human MAO-B = recombinant human MAO-B (Homo sapiens (Human), UniProt P27338); experiment: Inhibition of monoamine oxidase MAO-B; assay type: biochemical; conditions: kynuramine 50 μM, 25 min at 37° C.
Sequence of recombinant human MAO-B (P27338 whole entry): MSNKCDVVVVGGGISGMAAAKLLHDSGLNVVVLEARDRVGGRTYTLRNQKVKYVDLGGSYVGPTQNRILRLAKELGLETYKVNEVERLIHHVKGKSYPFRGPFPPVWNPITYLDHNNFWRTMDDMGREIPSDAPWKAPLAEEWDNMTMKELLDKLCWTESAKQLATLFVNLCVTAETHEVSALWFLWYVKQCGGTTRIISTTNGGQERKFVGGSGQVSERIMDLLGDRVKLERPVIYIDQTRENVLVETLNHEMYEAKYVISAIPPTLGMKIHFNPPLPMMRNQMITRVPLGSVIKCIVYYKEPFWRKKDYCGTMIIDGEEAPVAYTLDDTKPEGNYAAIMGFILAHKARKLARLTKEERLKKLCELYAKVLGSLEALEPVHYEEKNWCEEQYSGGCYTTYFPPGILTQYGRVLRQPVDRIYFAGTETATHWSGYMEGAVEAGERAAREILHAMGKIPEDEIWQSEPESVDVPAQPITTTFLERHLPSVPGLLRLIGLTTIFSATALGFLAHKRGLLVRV
Experimental: as §1

[4] = orally administered, pre-treatment

Sequence of LRRK2 (Q5S007 970-2527): as the sequence (Q5S007 970-2527 G2019S) above, with S1050G counted along it

In the case of Cc1n[nH]c2ncc(-c3cncc(NC4CCN(C)CC4)n3)cc12 [Compound 13, 6-(3methyl-1H-pyrazolo[3,4-b]pyridine-5yl)-N-(1-methylpiperidine-4yl)pyrazin-2-amine], the IC50 (LRRK2) is reported as less than 0.5 µM, the IC50 (LRRK2 G2019S) is reported as less than 0.5 µM and the IC50 (DYRK1A) is reported as less than 0.5 µM. For the same compound, the “activity against kinases in broader scope, relative to DMSO control” value [1] was 5-15%, the “protection against MPTP-induced TH cell loss and dopaminergic degeneration in substantia nigra and striatum” value ([2]; 10 mg/kg and 30 mg/kg oral) was “dose-dependent protection” and the “locomotor activities in MPTP-injected mice” value [2, 4] was “Improve Locomotor Activities”. For the same compound, the “striatal dopamine levels in MPTP treated mice” value [2, 4] was “Restore Striatal Dopamine Levels”, the AUC(0-t) (Rat pharmacokinetics; in vivo, iv, 5 mg/kg) was 1020 ng·h/mL and the Vd (Rat pharmacokinetics; in vivo, iv, 5 mg/kg) was 15.2 L/kg. The clearance (Rat pharmacokinetics; in vivo, iv, 5 mg/kg) was 123 mL/min/kg, the AUC(0-t) (Rat pharmacokinetics; in vivo, po, 30 mg/kg) was 1040 ng·h/mL and the Cmax (Rat pharmacokinetics; in vivo, po, 30 mg/kg) was 133 ng/mL. For the same compound, the half-life (Rat pharmacokinetics; rat, iv, 5 mg/kg) was 2.26 h, the F (Rat pharmacokinetics; rat, po, 30 mg/kg) was 24% and the Tmax (Rat pharmacokinetics; rat, po, 30 mg/kg) was 6.7 h. For the same compound, the “ATP TC50” value [3] was greater than 50 µM, the “Cell Mass TC50” value [3] was greater than 50 µM and the “Mem Tox TC50” value [3] was greater than 50 µM. For the same compound, the “ATP % Control” value ([3]; 5 μM) was 99%, the “Cell Mass % Control” value ([3]; 5 μM) was 93% and the “Mem Tox % Control” value ([3]; 5 μM) was 100%. For the same compound, the “ATP % Control” value ([3]; 10 μM) was 99%, the “Cell Mass % Control” value ([3]; 10 μM) was 88% and the “Mem Tox % Control” value ([3]; 10 μM) was 96%. The “ATP % Control” value ([3]; 50 μM) was 74%, the “Cell Mass % Control” value ([3]; 50 μM) was 71% and the “Mem Tox % Control” value ([3]; 50 μM) was 94%. It also gave an IC50 (recombinant human MAO-A) greater than 100 µM, an IC50 (recombinant human MAO-B) greater than 100 µM and a solubility (physchem) of 50 µM (≈ 16.2 µg/mL).
